Measurements taken from PubChem BioAssay (NCI).
Several values for one entry are separate records, joined by “and”; a condition that tells them apart may be missing. Identical values can stand only once.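 These data come from cells grown in 96-well plates and exposed to compound for 48 hours at five concentrations. GI50: concentration for 50% inhibition of growth. TGI: concentration producing complete growth inhibition.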

Legend:
Assay in all cases: NCI anticancer screen, dose series, 48 h
[1] = system: SNB-75 CNS
[2] = system: OVCAR-3 ovarian
[3] = system: OVCAR-5 ovarian
[4] = system: OVCAR-8 ovarian
[5] = system: A549 NSCLC
[6] = system: SW-620 colon
[7] = system: HS 578T breast
[8] = system: SK-MEL-28 melanoma

Structure (SMILES)	GI50 [1]	TGI [1]	GI50 [2]	TGI [2]	GI50 [3]	TGI [3]	GI50 [4]	TGI [4]	GI50 [5]	TGI [5]	GI50 [6]	TGI [6]	GI50 [7]	TGI [7]	GI50 [8]	TGI [8]
O=C(Nc1cccc(C(F)(F)F)c1)Nc1cccc(C(F)(F)F)c1	3.49 µM	31.7 µM	0.408 µM	5.04 µM	3.24 µM	14.8 µM	1.06 µM	10.4 µM	0.531 µM	8.21 µM	0.798 µM	6.88 µM	2.25 µM	12.5 µM	1.86 µM	10.5 µM
c1ccc(Nc2ncc(-c3ccccc3)o2)cc1	> 24.1 µM	> 25 µM	> 25 µM	> 25 µM	> 25 µM	> 25 µM	> 25 µM	> 25 µM	> 25 µM	> 25 µM	> 25 µM	> 25 µM	11.5 µM	> 25 µM	> 25 µM	> 25 µM
COc1ccc2ncnc(Nc3ccc(OCc4ccccc4)cc3)c2c1	9.78 µM	> 25 µM	7.08 µM	> 23.1 µM	6.57 µM	> 22.6 µM	8.39 µM	> 25 µM	5.98 µM	> 25 µM	9.04 µM	> 25 µM	10.2 µM	> 25 µM	9.36 µM	> 25 µM
O=C1OCC2=C1C(c1cccc(Br)c1)c1cc3c(cc1N2CCO)OCCO3 (stereo not given)	0.0397 µM	> 35.4 µM	0.0345 µM	0.0967 µM	0.221 µM	> 33.7 µM	0.12 µM	1.54 µM	0.131 µM	5.97 µM	0.0527 µM	> 27.9 µM	0.0715 µM	> 21.3 µM	0.0884 µM	> 50 µM
OC(c1cc(C(F)(F)F)nc2c(C(F)(F)F)cccc12)C1CCCCN1 (stereo not given)	2.34 µM	11.7 µM	2.19 µM	4.37 µM	2.88 µM	10.4 µM	1.97 µM	4.24 µM	2.24 µM	6.33 µM	1.85 µM	3.46 µM	3.8 µM	19.5 µM	1.84 µM	3.29 µM
Cc1ccc(-c2nc(N3CCNCC3)c3oc(-c4ccc(C)cc4)nc3n2)cc1	8.66 µM	> 32.1 µM	1.95 µM	3.87 µM	5.21 µM	17.9 µM	2.13 µM	4.63 µM	3.35 µM	12.4 µM	1.8 µM	4.02 µM		> 24.2 µM	6.14 µM	11.5 µM
C=CC(=O)Nc1cc(Nc2nccc(-c3cn(C)c4ccccc34)n2)c(OC)cc1N(C)CCN(C)C	3.52 µM and 2.57 µM	16.4 µM and > 10 µM	1.4 µM and 1.38 µM	2.93 µM and 3.04 µM	1.3 µM and 1.29 µM	2.95 µM and 6.55 µM	2.04 µM and 1.57 µM	5.89 µM and 4.18 µM	1.4 µM and 1.29 µM	4.17 µM and 3.87 µM	1.83 µM	3.76 µM and 4.43 µM	3.32 µM and 1.89 µM	16 µM and 9.69 µM	1.63 µM and 1.62 µM	3.07 µM and 3.12 µM
COC(=O)c1cc2oc(/C=C3/SC(=S)N(NC(C)=O)C3=O)cc2n1C	34.7 µM	> 100 µM	19.2 µM	55 µM	21.7 µM	54.9 µM	23.1 µM	99.1 µM	28.3 µM	> 100 µM	7.51 µM	25.5 µM	15.2 µM	59.2 µM	40.3 µM	> 100 µM
COc1c2ccccc2c(OC)c2[nH]c(=O)ccc12	3.2 µM	> 21.9 µM	2.31 µM	6.89 µM	8.02 µM	> 85.4 µM	13.6 µM	> 100 µM	2.43 µM	> 20.6 µM	4.2 µM	> 63.4 µM	2.68 µM	20.7 µM	2.37 µM	5.1 µM
Nc1nc2[nH]cc(CCc3ccc(C(=O)N[C@@H](CCC(=O)O)C(=O)O)cc3)c2c(=O)[nH]1		> 100 µM		> 100 µM		> 100 µM	0.154 µM	> 100 µM	0.587 µM	> 100 µM		> 100 µM		> 100 µM		> 100 µM
COC(=O)/C=C/c1cc(OC(C)=O)c2c(c1)[C@@H](C(=O)OC)[C@H](c1ccc(OC(C)=O)c(OC(C)=O)c1)O2	0.0191 µM	1.48 µM	0.0267 µM	0.0681 µM	0.95 µM	> 100 µM	0.0795 µM	> 88.3 µM	0.248 µM	> 78.8 µM	0.0418 µM	> 100 µM	0.0343 µM	17.7 µM	0.852 µM	80.8 µM
NC(=S)N/N=C1\c2cc(Cl)ccc2-c2c1cc(Cl)cc2[N+](=O)[O-]	2.84 µM	28.3 µM	4.66 µM	40.8 µM	11 µM	> 100 µM	4.62 µM	> 100 µM	4.05 µM	> 100 µM	10.7 µM	> 100 µM	18.8 µM	> 100 µM	3.83 µM	> 100 µM
CN1CCN(C(=O)COc2ccc(C34CC5CC(CC(C5)C3)C4)cc2)CC1	14.1 µM	29.3 µM	13.4 µM	27.3 µM	17.6 µM	44.6 µM	18.2 µM	54.1 µM	13 µM	37.2 µM	12.8 µM	29.6 µM	15.6 µM	45.6 µM	12.7 µM	26.2 µM
COc1ccccc1NC(=O)c1cc2cc(Br)ccc2cc1O	2.12 µM	8.89 µM	2.48 µM	9.06 µM	3.48 µM	12.9 µM	3 µM	14.7 µM	2.65 µM	7.71 µM	3.12 µM	11.1 µM	2.61 µM		4.46 µM	14.4 µM
CC(=O)Nc1cc2ccc(=O)oc2cc1Cl		> 100 µM		> 100 µM		> 100 µM		> 100 µM		> 100 µM		> 100 µM		> 100 µM		> 100 µM
NC(N)=NS(=O)(=O)c1ccc(N=Nc2c(O)c(C(=O)O)cc3ccccc23)cc1		> 100 µM		> 100 µM		> 100 µM		> 100 µM		> 100 µM		> 100 µM		> 100 µM		> 100 µM

Structure (SMILES)	GI50 [1]	TGI [1]	GI50 [2]	TGI [2]	GI50 [3]	TGI [3]	GI50 [4]	TGI [4]	GI50 [5]	TGI [5]	GI50 [6]	TGI [6]	GI50 [7]	TGI [7]	GI50 [8]	TGI [8]
CC1(C)[C@@H](NOCCCN)CC[C@]2(C)[C@H]3C(=O)C=C4[C@@H]5C[C@](C)(C(=O)O)CC[C@]5(C)CC[C@@]4(C)[C@]3(C)CC[C@@H]12	12 µM	42.4 µM	4.17 µM	19.7 µM	14.1 µM	28.1 µM	6.18 µM	28.7 µM	6.13 µM	33.6 µM	3.41 µM	14 µM	4.23 µM	50 µM	4.08 µM	13.6 µM
CN(C)CC(O)c1ccc(/C=C/c2ccc(Cl)cc2)cc1 (stereo not given)	1.71 µM	4.18 µM	1.57 µM	2.91 µM	1.72 µM	3.59 µM	1.75 µM	3.32 µM	1.86 µM	3.38 µM	1.6 µM	2.95 µM	1.49 µM	3.21 µM	1.84 µM	3.45 µM
C=C1C[C@H](O)[C@H](Br)C(C)(C)[C@@]12CCC(C)=C(Cl)C2	0.16 µM	0.785 µM	0.509 µM	4.13 µM	0.342 µM	8.87 µM	0.416 µM	15.3 µM	0.261 µM	1.96 µM	0.625 µM	11.3 µM	0.289 µM	2.98 µM	0.458 µM	2.78 µM
COc1cc2c(cc1OC)-c1cc(OC)c(OC)cc1C(CN(C)C)C2 (stereo not given)	4.56 µM	> 10 µM	> 10 µM	> 10 µM	> 10 µM	> 10 µM	> 10 µM	> 10 µM	> 10 µM	> 10 µM	> 10 µM	> 10 µM	7.27 µM	> 10 µM	> 10 µM	> 10 µM
O=C(NC1CCCCC1)NS(=O)(=O)c1ccc(N2N=C3c4ccccc4CC3C2c2ccc(Cl)cc2)cc1 (stereo not given)	13.2 µM	85.9 µM	18.4 µM	42 µM	25.5 µM	80.4 µM	19.6 µM	71.7 µM	17.9 µM	47 µM	10.3 µM	24.3 µM	4.61 µM	37.2 µM	29.7 µM	> 100 µM
NC(=S)N/N=C\c1nccc2c(C(F)(F)F)cccc12	0.284 µM	16.7 µM	0.294 µM	10.8 µM	0.445 µM	27.6 µM	0.308 µM	24 µM	0.293 µM	3.26 µM	0.463 µM	17.4 µM	1.36 µM	> 58.8 µM	0.57 µM	12.7 µM
CC(=C(c1ccc(OCCN2CCCCC2)cc1)c1ccc(OCCN2CCCCC2)cc1)c1ccc(Cl)cc1	0.325 µM	0.673 µM	0.415 µM	0.783 µM	0.417 µM	0.771 µM	0.484 µM	1.04 µM	0.457 µM	0.914 µM	0.408 µM	0.794 µM	0.458 µM	1.04 µM	0.422 µM	0.773 µM
Br[Se]c1ccccn1		30.7 µM		28.9 µM		35.1 µM		36 µM		44.3 µM		51.4 µM		40.3 µM		37.5 µM
COc1ccc(CN2C(=O)C(Cl)=C(Nc3cccc(C(F)(F)F)c3)C2=O)cc1	11.9 µM	27.3 µM	4.19 µM	15.8 µM	18 µM	48.7 µM	7.65 µM	30.8 µM	8.54 µM	> 100 µM	3.61 µM	15.7 µM	3.14 µM	13.1 µM	4.89 µM	18.2 µM
COC(=O)[C@]12CC[C@@H](C)[C@H](C)[C@@H]1C1=CC[C@@H]3[C@@]4(C)C[C@@H](O)[C@H](O)[C@@](C)(CO)[C@@H]4[C@H](O)C[C@@]3(C)[C@]1(C)CC2	12.3 µM	28.1 µM	12.8 µM	26 µM	17.9 µM	36.4 µM	17.7 µM	41.1 µM	15.8 µM	45.2 µM	18.8 µM	39.4 µM	18.5 µM	45.8 µM	11.8 µM	30.3 µM
CC(C)[C@@H]1NC(=O)[C@]2(C)CSC(=N2)c2ccnc(c2)CNC(=O)C[C@@H](/C=C/CCS)OC1=O	0.0912 µM	> 100 µM	0.833 µM	6.87 µM	0.156 µM	> 100 µM	0.128 µM	> 100 µM	0.0635 µM	1.33 µM	0.448 µM	7.65 µM	0.0407 µM		0.119 µM	3.46 µM
O=C(Nc1nn2c(-c3cc(C(F)(F)F)cc(C(F)(F)F)c3)nnc2s1)C1CCCC1	1.43 µM	> 28.2 µM	0.441 µM	> 37.8 µM	2.63 µM	> 100 µM	1.18 µM	> 100 µM	1.08 µM	> 100 µM	1.74 µM	> 100 µM	0.706 µM	> 100 µM	0.734 µM	> 100 µM
CCCCCCCCCCSC(=N)N (tested in a mixture with another compound)	1.42 µM	3.43 µM	2.36 µM	6.28 µM	13.1 µM	32.7 µM	3.05 µM	9.64 µM	4.36 µM	18 µM	2.1 µM	4.7 µM	8.03 µM	29.5 µM	2.65 µM	8.15 µM
C=C(C)C(=O)O[C@@H]1C[C@@]2(C)O[C@@H]2C[C@H](O)/C(C)=C/[C@H]2OC(=O)C(=C)[C@@H]21		> 100 µM		> 100 µM		> 100 µM		> 100 µM		> 100 µM		38.9 µM		> 100 µM		56.5 µM
CN(C)c1ccc(/C=N/NC(=S)Nc2ccccc2)cc1		> 100 µM		> 100 µM		> 100 µM		> 100 µM		> 100 µM		> 100 µM		> 100 µM		> 100 µM
C[C@@H]1CC[C@H]2C(C)(C)[C@H]3C[C@@]12CC[C@@]3(C)O		> 100 µM		> 100 µM		> 100 µM		> 100 µM		> 100 µM		> 100 µM		> 100 µM		> 100 µM
